Laboratory results from article PMC6009932, “Small molecule purine and pseudopurine derivatives: synthesis, cytostatic evaluations and investigation of growth inhibitory effect in non-small cell lung cancer A549” (Journal of Enzyme Inhibition and Medicinal Chemistry, 2017).
pIC50: −log10 of the molar value.

Legend:
[1] = test system: A549 (lung carcinoma); test: Proliferation assay (MTT, 72 h) on A549; assay type: cell-based; conditions: Homo sapiens, A549 lung adenocarcinoma
Procedure: (§1) Human carcinoma cell lines A549 (lung carcinoma), HeLa (cervical carcinoma), SW620 (colorectal adenocarcinoma, metastatic), and CFPAC-1 (pancreatic cancer, derived from metastatic: liver), normal human lung (WI38) and foreskin (HFF-1) fibroblasts were obtained from the American Type Culture Collection (ATCC). Cells were cultured in humidified atmosphere at 37 °C with 5% CO2. As growth medium, Dulbecco’s modified Eagle medium (DMEM) was used with the addition of foetal bovine serum (10%), L-glutamine (2 mM) and antibiotics: streptomycin (100 µg/ml) and penicillin (100 U/ml).
(§2) Cells were seeded onto 96-well microtiter plates at a seeding density of 3000 cells/well for carcinoma cell lines, and 5000 cells/well for normal human fibroblasts. The next day, cells were treated with test agents in five different concentrations (0.01–100 µM) and further incubated for 72 h. […] Following 72 h incubation, the MTT assay was performed and measured absorbances were transformed into percentage of cell growth as described previously. Results were obtained from three independent experiments. IC50 values were calculated using linear regression analysis and results were statistically analysed by ANOVA, Tukey post-hoc test (p < .05).

[2] = test system: CFPAC-1 (ductal pancreatic adenocarcinoma); test: Proliferation assay (MTT, 72 h) on CFPAC-1; assay type: cell-based; conditions: Homo sapiens
Procedure: as §1, §2

[3] = test system: HeLa (cervical carcinoma); test: Proliferation assay (MTT, 72 h) on HeLa; assay type: cell-based; conditions: Homo sapiens
Procedure: as §1, §2

[4] = test system: SW620 (colorectal adenocarcinoma, metastatic); test: Proliferation assay (MTT, 72 h) on SW620; assay type: cell-based; conditions: Homo sapiens, SW-620
Procedure: as §1, §2

[5] = test system: WI38 normal human lung fibroblasts; test: Proliferation assay (MTT, 72 h) on normal lung fibroblasts WI38; assay type: cell-based; conditions: WI-38, read-out: IC50 WI38/HFF-1 (WI38)
Procedure: as §1, §2

[6] = test system: HFF-1 normal human foreskin fibroblasts; test: Proliferation assay (MTT, 72 h) on normal foreskin fibroblasts HFF-1; assay type: cell-based; conditions: compounds 11a–e tested in HFF-1 cell line, read-out: IC50 WI38/HFF-1 (HFF-1)
Procedure: as §1, §2

| SMILES | pIC50 [1] | pIC50 [2] | pIC50 [3] | pIC50 [4] | pIC50 [5] | melting point [°C] | pIC50 [6] |
| --- | --- | --- | --- | --- | --- | --- | --- |
| Fc1ccc2c(ccn2Cc2cn(-c3ccc(C(F)(F)F)cc3)nn2)c1 [Compound 10c, 5-Fluoro-1-{[1–(4-(trifluoromethyl)phenyl)-1 H-1,2,3-triazol-4-yl]methyl}-1 H-indole] | 4.15 | 4.19 | 4.28 | 4.27 | 4.62 | 151 to 154 | – |
| O=c1cc(Cn2cc(Cn3ccc4cc(F)ccc43)nn2)c2ccc(O)cc2o1 [Compound 10e, 4-{[4-((5-Fluoro-1H-indol-1-yl)methyl)-1H-1,2,3-triazol-1-yl]methyl}-7-hydroxy-2H-chromen-2-one] | 4.28 | 4.11 | 4.32 | 4.24 | 4.34 | 181 to 184 | – |
| Fc1ccc(-n2cc(Cn3ccc4ccccc43)nn2)cc1 [Compound 11a, 1-{[1-(4-Fluorophenyl)-1H-1,2,3-triazol-4-yl]methyl}-1H-indole] | 4.36 | < 4.00 | < 4.00 | 4.36 | – | – | < 4.00 |
| Clc1ccc(-n2cc(Cn3ccc4ccccc43)nn2)cc1 [Compound 11b, 1-{[1-(4-Chlorophenyl)-1H-1,2,3-triazol-4-yl]methyl}-1H-indole] | < 4.00 | < 4.00 | < 4.00 | < 4.00 | – | – | < 4.00 |
| FC(F)(F)c1ccc(-n2cc(Cn3ccc4ccccc43)nn2)cc1 [Compound 11c, 1-{[1-(4-(Trifluoromethyl)phenyl)-1H-1,2,3-triazol-4-yl]methyl}-1H-indole] | < 4.00 | < 4.00 | < 4.00 | < 4.00 | – | – | < 4.00 |
| Fc1ccccc1-n1cc(Cn2ccc3ccccc32)nn1 [Compound 11d, 1-{[1-(2-Fluorophenyl)-1H-1,2,3-triazol-4-yl]methyl}-1H-indole] | 4.29 | 4.07 | 4.15 | 4.35 | – | – | 4.39 |
| O=c1cc(Cn2cc(Cn3ccc4ccccc43)nn2)c2ccc(O)cc2o1 [Compound 11e, 4-{[4-((1H-Indol-1-yl)methyl)-1H-1,2,3-triazol-1-yl]methyl}-7-hydroxy-2 H-chromen-2-one] | 4.12 | < 4.00 | 4.08 | 4.16 | – | 155 to 158 | 4.40 |
